Measurements: ChEMBL document CHEMBL5376003, “Structure-Activity Relationship of FL118 Platform Position 7 Versus Position 9-Derived Compounds and Their Mechanism of Action and Antitumor Activity” (J Med Chem, 2023)
Activity calls are given as the source filed them. No cut-off for these calls is given here.

Key:
[1] = test system: HCT-116; test: Induction of apoptosis in human HCT-116 cells assessed as downregulation of GART gene expression at 10 to 500 nM incubated for 6 to 48 hrs by RNA analysis; format: functional, cell-based; settings: dose 10-500 nM, time 6-48 hrs
[2] = test system: HCT-116; test: Induction of apoptosis in human HCT-116 cells assessed as modulation of DDX42 mRNA expression at 10 to 500 nM incubated for 6 to 48 hrs by RNA analysis; format: functional, cell-based; settings: dose 10-500 nM, time 6-48 hrs
[3] = test system: HCT-116; test: Induction of apoptosis in human HCT-116 cells assessed as downregulation of PRKACB gene expression at 10 to 500 nM incubated for 6 to 48 hrs by RNA analysis; format: functional, cell-based; settings: dose 10-500 nM, time 6-48 hrs
[4] = test system: HCT-116; test: Induction of apoptosis in human HCT-116 cells assessed as downregulation of CTPS1 gene expression at 10 to 500 nM incubated for 6 to 48 hrs by RNA analysis; format: functional, cell-based; settings: dose 10-500 nM, time 6-48 hrs
[5] = test system: HCT-116; test: Activation of innate immune response in human HCT-116 cells assessed as upregulation of IL-12B gene expression at 10 to 500 nM incubated for 6 to 48 hrs by RNA analysis; format: functional, cell-based; settings: dose 10-500 nM, time 6-48 hrs
[6] = test system: HCT-116; test: Induction of apoptosis in human HCT-116 cells assessed as downregulation of ATIC gene expression at 10 to 500 nM incubated for 6 to 48 hrs by RNA analysis; format: functional, cell-based; settings: dose 10-500 nM, time 6-48 hrs
[7] = test system: HCT-116; test: Induction of apoptosis in human HCT-116 cells assessed as downregulation of PRIM1 mRNA expression at 10 to 500 nM incubated for 6 to 48 hrs by RNA analysis; format: functional, cell-based; settings: dose 10-500 nM, time 6-48 hrs
[8] = test system: HCT-116; test: Induction of apoptosis in human HCT-116 cells assessed as modulation of TOP3A mRNA expression at 10 to 500 nM incubated for 6 to 48 hrs by RNA analysis; format: functional, cell-based; settings: dose 10-500 nM, time 6-48 hrs
[9] = test system: HCT-116; test: Induction of apoptosis in human HCT-116 cells assessed as downregulation of NUP155 gene expression at 10 to 500 nM incubated for 6 to 48 hrs by RNA analysis; format: functional, cell-based; settings: dose 10-500 nM, time 6-48 hrs
[10] = test system: HCT-116; test: Induction of apoptosis in human HCT-116 cells assessed as downregulation of NUP85 gene expression at 10 to 500 nM incubated for 6 to 48 hrs by RNA analysis; format: functional, cell-based; settings: dose 10-500 nM, time 6-48 hrs
[11] = test system: PDX14244; test: Antitumor activity against human PDX14244 cells xenografted in SCID mouse model assessed as reduction in tumor volume at 8 mg/kg,po administrated once per week for 3 weeks; format: functional, organism-based
[12] = test system: HCT-116; test: Induction of apoptosis in human HCT-116 cells assessed as downregulation of BCL2 mRNA expression at 10 to 500 nM incubated for 6 to 48 hrs by RNA analysis; format: functional, cell-based; settings: dose 10-500 nM, time 6-48 hrs
[13] = test system: HCT-116; test: Induction of apoptosis in human HCT-116 cells assessed as modulation of DDX17 mRNA expression at 10 to 500 nM incubated for 6 to 48 hrs by RNA analysis; format: functional, cell-based; settings: dose 10-500 nM, time 6-48 hrs
[14] = test system: HCT-116; test: Induction of apoptosis in human HCT-116 cells assessed as downregulation of PRKAR2B gene expression at 10 to 500 nM incubated for 6 to 48 hrs by RNA analysis; format: functional, cell-based; settings: dose 10-500 nM, time 6-48 hrs
[15] = test system: HCT-116; test: Induction of apoptosis in human HCT-116 cells assessed as modulation of DDX54 mRNA expression at 10 to 500 nM incubated for 6 to 48 hrs by RNA analysis; format: functional, cell-based; settings: dose 10-500 nM, time 6-48 hrs
[16] = test system: HCT-116; test: Induction of apoptosis in human HCT-116 cells assessed as modulation of TOP2B mRNA expression at 10 to 500 nM incubated for 6 to 48 hrs by RNA analysis; format: functional, cell-based; settings: dose 10-500 nM, time 6-48 hrs
[17] = test system: HCT-116; test: Induction of apoptosis in human HCT-116 cells assessed as downregulation of NUP93 gene expression at 10 to 500 nM incubated for 6 to 48 hrs by RNA analysis; format: functional, cell-based; settings: dose 10-500 nM, time 6-48 hrs
[18] = test system: HCT-116; test: Induction of apoptosis in human HCT-116 cells assessed as downregulation of NUP160 gene expression at 10 to 500 nM incubated for 6 to 48 hrs by RNA analysis; format: functional, cell-based; settings: dose 10-500 nM, time 6-48 hrs
[19] = test system: HCT-116; test: Induction of apoptosis in human HCT-116 cells assessed as downregulation of PPP2CA gene expression at 10 to 500 nM incubated for 6 to 48 hrs by RNA analysis; format: functional, cell-based; settings: dose 10-500 nM, time 6-48 hrs
[20] = test system: HCT-116; test: Induction of apoptosis in human HCT-116 cells assessed as downregulation of ACACA gene expression at 10 to 500 nM incubated for 6 to 48 hrs by RNA analysis; format: functional, cell-based; settings: dose 10-500 nM, time 6-48 hrs
[21] = test system: HCT-116; test: Induction of apoptosis in human HCT-116 cells assessed as upregulation of USP11 mRNA expression at 10 to 500 nM incubated for 6 to 48 hrs by RNA analysis; format: functional, cell-based; settings: dose 10-500 nM, time 6-48 hrs
[22] = test system: HCT-116; test: Growth inhibition of human HCT-116 cells incubated for 48 hrs by MTT reagent based ELISA reader analysis; format: functional, cell-based; settings: HCT-116, 48 h
[23] = test system: HCT-116; test: Induction of apoptosis in human HCT-116 cells assessed as downregulation of PPAT gene expression at 10 to 500 nM incubated for 6 to 48 hrs by RNA analysis; format: functional, cell-based; settings: dose 10-500 nM, time 6-48 hrs
[24] = test system: HCT-116; test: Induction of apoptosis in human HCT-116 cells assessed as upregulation of DDX5 mRNA expression at 500 nM incubated for 6 hrs by RNA analysis; format: functional, cell-based
[25] = test system: HCT-116; test: Induction of apoptosis in human HCT-116 cells assessed as modulation of TOP1 mRNA expression at 10 to 500 nM incubated for 6 to 48 hrs by RNA analysis; format: functional, cell-based; settings: dose 10-500 nM, time 6-48 hrs
[26] = test system: A549; test: Growth inhibition of human A549 cells incubated for 48 hrs by MTT reagent based ELISA reader analysis; format: functional, cell-based; settings: A549, 48 h
[27] = test system: HCT-116; test: Induction of apoptosis in human HCT-116 cells assessed as downregulation of NUP62 gene expression at 10 to 500 nM incubated for 6 to 48 hrs by RNA analysis; format: functional, cell-based; settings: dose 10-500 nM, time 6-48 hrs
[28] = test system: HCT-116; test: Induction of apoptosis in human HCT-116 cells assessed as modulation of TOP3B mRNA expression at 10 to 500 nM incubated for 6 to 48 hrs by RNA analysis; format: functional, cell-based; settings: dose 10-500 nM, time 6-48 hrs
[29] = test system: HCT-116; test: Induction of apoptosis in human HCT-116 cells assessed as increase in intracellular ROS level incubated for 48 hrs by DCFH-DA staining based fluorescence microscopy; format: functional, cell-based
[30] = test system: HCT-116; test: Induction of apoptosis in human HCT-116 cells assessed as downregulation of DPYD gene expression at 10 to 500 nM incubated for 6 to 48 hrs by RNA analysis; format: functional, cell-based; settings: dose 10-500 nM, time 6-48 hrs
[31] = test system: HCT-116; test: Induction of apoptosis in human HCT-116 cells assessed as downregulation of NUP43 gene expression at 10 to 500 nM incubated for 6 to 48 hrs by RNA analysis; format: functional, cell-based; settings: dose 10-500 nM, time 6-48 hrs
[32] = test system: HCT-116; test: Induction of apoptosis in human HCT-116 cells assessed as downregulation of NUP107 gene expression at 10 to 500 nM incubated for 6 to 48 hrs by RNA analysis; format: functional, cell-based; settings: dose 10-500 nM, time 6-48 hrs
[33] = test system: HCT-116; test: Induction of apoptosis in human HCT-116 cells assessed as increase in intracellular ROS level at 10 to 1000 nM incubated for 4 to 8 hrs by DCFH-DA staining based fluorescence microscopy; format: functional, cell-based; settings: dose 10-1000 nM, time 4-8 hrs
[34] = test system: HCT-116; test: Induction of apoptosis in human HCT-116 cells assessed as downregulation of SLC25A13 gene expression at 10 to 500 nM incubated for 6 to 48 hrs by RNA analysis; format: functional, cell-based; settings: dose 10-500 nM, time 6-48 hrs

| Compound | Activity [1] | Activity [2] | Activity [3] | Activity [4] | Activity [5] | Activity [6] | Activity [7] | Activity [8] | Activity [9] | Activity [10] | Activity [11] | Activity [12] | Activity [13] | Activity [14] | Activity [15] | Activity [16] | Activity [17] | Activity [18] | Activity [19] | Activity [20] | also measured |
| --- | --- | --- | --- | --- | --- | --- | --- | --- | --- | --- | --- | --- | --- | --- | --- | --- | --- | --- | --- | --- | --- |
| CC[C@@]1(O)C(=O)OCc2c1cc1n(c2=O)Cc2c-1nc1cc3c(cc1c2-c1ccc(OC)cc1)OCO3 | Active | Active | Active | Active | Active | Active | Active | Active | Active | Active | Active | Active | Active | Active | Active | Active | Active | Active | Active | Active | Activity [21]: Active; IC50 [22]: 17.7 nM; Activity [23]: Active; Activity [24]: Active; Activity [25]: Active; IC50 [26]: 43.3 nM; Activity [27]: Active; Activity [28]: Active; Activity [29]: Dose-Dependent Effect; Activity [30]: Active; Activity [31]: Active; Activity [32]: Active; Activity [33]: Active; Activity [34]: Active |
| CCc1ccc(-c2c3c(nc4cc5c(cc24)OCO5)-c2cc4c(c(=O)n2C3)COC(=O)[C@]4(O)CC)cc1 | Active | Active | Active | Active | Active | Active | Active | Active | Active | Active | Active | Active | Active | Active | Active | Active | Active | Active | Active | Active | Activity [21]: Active; IC50 [22]: 55.6 nM; Activity [23]: Active; Activity [24]: Active; Activity [25]: Active; IC50 [26]: 57.2 nM; Activity [27]: Active; Activity [28]: Active; Activity [29]: Dose-Dependent Effect; Activity [30]: Active; Activity [31]: Active; Activity [32]: Active; Activity [33]: Active; Activity [34]: Active |
